Experimental findings from patent US9540358B2, “Tricyclic compounds as anticancer agents” (ICAHN SCHOOL OF MEDICINE AT MOUNT SINAI, priority 2011, dated 2017) are described below.

Data set [1] deals with H1650 lung cancer cells. The data set can be described thus: Cell viability assay (MTT, IC50 determination). Format: cell-based. As to conditions: Homo sapiens, NCI-H1650, 48 hours after drug treatment, MTT. As to the method:
(§1) 89(22): p. […] H1650 lung cancer cells were plated at 150,000 cells per well in a 12 well plate. Twenty-four hours after plating, cells were treated as described with increasing concentrations of drug and control. Forty-eight hours after drug treatment, cells were treated with 100 μL of 3-(4,5-Dimethylthiazol-2-yl)-2,5-diphenyltetrazolium bromide (MTT) and incubated for 2 hours at 37 C. The MTT solution was subsequently replaced with 300 μL of n-propyl alcohol and re-aliquoted to a 96 well plates. Spectrophotometric analysis of each solution was performed using a 96 well plate reader at 600 nm in triplicate.

In data set [2] the test system is naïve CD4 T cells. The data set can be described thus: Treg induction from naïve CD4 T cells (Foxp3 expression). It is filed as cell-based. As to the method: Example 30 has been tested for its ability to induce Treg from naïve CD4 T cells. […] Fifty thousand CD4 naïve cells (CD62Lhi, CD25 low, CD4 positive) were incubated with 2 ng/mL TGFβ, 1 ug/mL anti-CD3, 100 ng/mL IL-2, 50000 APCs per well and the compounds 10 μM, 5 μM and 2.5 μM concentrations. The cells were incubated for 3 days and then stained for CD4 and Foxp3 expression. Results were expressed as fold increase over the % induced in control (DMSO) wells (typically 20-25% Foxp3+). AKTi, a small molecule AKT inhibitor, was used as a positive control; it induced about a 4-fold increase. […] The effects of Example 30 on iTreg induction are amplified as the TGFβ concentration decreases.

For data set [3], the system named is A549luc cells. The data set is described as follows: Colony formation (clonogenic) assay, A549luc. It is filed as cell-based. As to conditions: 7 days. The procedure: (§2) Protocol for clonogenic assay follows Sangodkar et al. J Clin Invest 2012; 122:2637-51.
(§3) Cell culture and staining: For both A549luc and H292 cells, 500 cells were seeded into each well of a 6-well plate and allowed to attach for 24 hours before drug treatment. The following day, cells were treated with either the appropriate dose of drug or an equivalent volume of DMSO (two replicates were treated for each condition). For each condition, depleted media was replaced with fresh media containing the equivalent drug dose four days after initial treatment. Cells were harvested either 7 (A549luc) or 8 (H292) days after initial treatment. Briefly, media was aspirated from each well and the cells were washed twice with ice-cold PBS, then plates were allowed to dry at room temperature for 4 hours. Cells were fixed for one hour in a fixing solution consisting of 10% methanol and 10% glacial acetic acid in distilled water, then stained overnight in 1% (w/v) crystal violet dissolved in methanol. The next day, staining solution was aspirated from the wells and plates were washed gently with distilled water to remove excess stain before colony counting. Colonies were imaged on a ChemiDoc XRS+ (Bio-Rad) and images were exported as 8-bit TIFF files. Colonies were counted using the Colony Counter plugin in ImageJ, with colony size defined as between 4 and 400 square pixels, and minimum circularity set at 0.6. Duplicate wells were averaged to obtain a single value for each condition. Results (number of colonies) for A549luc cells are shown in Table 2 and results (number of colonies) for H292 cells are shown in Table 3: […]

Data set [4] concerns alloreactive T cells. The data set can be described thus: Suppression assay using induced Tregs. Format: cell-based.
Data set [5] deals with BALB/c hearts transplanted into fully allogeneic B6 recipients. The data set can be described thus: Heart allograft survival. Format: in vivo, mice. As to conditions: 100 mg/kg i.p., n=4, p<0.05 vs control; untreated rejected by day 8. As to the method: To test for a clinically relevant in vivo effect, BALB/c hearts were transplanted into fully allogeneic B6 recipients. While untreated animals rejected their grafts by day 8 n=4, the grafts in the mice treated with 100 mg/kg i.p. of Example 30 lasted 18 days n=4, p<0.05 vs control, a statistically and clinically significant effect.

The subject of data set [6] is EGFR-L858R/CCSP mice. The data set can be described thus: In vivo lung cancer model. As to conditions: i.p. 100 mg/kg every other day, two week treatment period, MRI; DMSO control 20% increase. As to the method:
The in vivo lung cancer model is described in Politi et al., Genes Dev. Jun. 1, 2006 20: 1496-1510. EGFR-L858R/CCSP mice were fed doxycycline-impregnanted food pellets to induce tumor formation. After 8-12 weeks, mice were imaged in a Bruker 4.7T Biospec scanner to confirm lung nodule development. After tumor confirmation, the compound of Example 30 was prepared in DMSO (Sigma) and administered i.p. at 100 mg/kg every other day for two weeks. After treatment, the mice were re-imaged by MRI, and pre-treatment and post-treatment lung volumes were calculated by visible lung opacity present in each axial image using Osirix 4.1.1. DMSO control animals show a 20% increase in tumor volume over two week treatment period. Animals treated with the compound of Example 30 show a 60% decrease in tumor volume over two week treatment period.

Data set [7] deals with H292 cells. The data set can be described thus: Colony formation (clonogenic) assay, H292. It is filed as cell-based. As to conditions: 8 days. The procedure:
as §2, §3

The nature of data set [8]: Cell viability assay (MTT, IC50 determination). It is filed as cell-based. As to conditions: human, H1650 lung cancer cells. As to the method:
as §1

As for `O=S(=O)(NCCN1c2ccccc2Sc2ccc(Cl)cc21)c1ccc(Cl)cc1` [Example 27, 4-chloro-N-(2-(2-chloro-10H-phenothiazin-10-yl)ethyl)benzenesulfonamide], 20 µM corresponded to half-maximal inhibition in data set [1] (IC50). The “fold increase in iTreg over control (DMSO) wells” value in data set [2] (at 5 μM, 3 days, 2 ng/mL TGFβ) is recorded as 2 fold.
On to `O=S(=O)(NCCCN1c2ccccc2CCc2ccc(Cl)cc21)c1ccc(OC(F)(F)F)cc1` [Example 30, N-(3-(3-chloro-10,11-dihydro-5H-dibenzo[b,f]azepin-5-yl)propyl)-4-(trifluoromethoxy)benzenesulfonamide], for which the number of colonies is 116 in data set [3] (5 μM); 111.5 in data set [3] (7.5 μM); 67.5 in data set [3] (10 μM); 95 in data set [7] (5 μM); 74.5 in data set [7] (7.5 μM); 61 in data set [7] (10 μM). Moreover, the IC50 in data set [1] worked out at 12.6 µM. Further, the “suppressive capacity of iTreg induced with or without compound (% inhibition of maximal proliferation)” value in data set [4] is listed as “equivalent suppressive capacity”. The molecule also registered a heart graft survival in data set [5] of 18 days. Further, the “decrease in tumor volume” value in data set [6] is reported as 60%. In data set [2] (at 2.5 μM, 3 days, 2 ng/mL TGFβ), the “fold increase in iTreg over control (DMSO) wells” value is recorded as “greater than 2 fold”. Moreover, the “upregulation of Foxp3” value in data set [2] (naïve polyclonal T cells treated with TGFβ and TCR transgenic T cells stimulated in vivo during costimulatory blockade) is given as “facilitated upregulation of Foxp3”.
On to `O=S(=O)(NCC(O)CN1c2ccccc2CCc2ccccc21)c1ccc(OC(F)(F)F)cc1` (centres unmarked) [Example 60, 4-Trifluoromethoxy-N-(3-(10,11-dihydro-5H-dibenzo[b,f]azepin-5-yl)-2-hydroxypropyl)benzenesulfonamide], for which the number of colonies in data set [3] (5 μM) is on record as 126.5; in data set [3] (7.5 μM), 118.5; in data set [3] (10 μM), 56; in data set [7] (5 μM), 107; in data set [7] (7.5 μM), 105; in data set [7] (10 μM) it was 42. This molecule gave an IC50 in data set [1] of around 15 µM.
On to `O=S(=O)(NCCCN1c2ccccc2CCc2ccc(Cl)cc21)c1cnc(Cl)c(Br)c1` [Example 63, 5-Bromo-6-chloro-N-(3-(3-chloro-10,11-dihydro-5H-dibenzo[b,f]azepin-5-yl)propyl)pyridine-3-sulfonamide], for which, in data set [8] (@ 20 μM), the viability at 48 h, 20 µM is 65%.
As for `O=S(=O)(NC[C@@H](O)CN1c2ccccc2CCc2ccccc21)c1ccc(OC(F)(F)F)cc1` [Example 74, (S)—N-(3-(10,11-dihydro-5H-dibenzo[b,f]azepin-5-yl)-2-hydroxypropyl)-4-(trifluoromethoxy)benzenesulfonamide], the number of colonies in data set [3] (5 μM) was 135.5; in data set [3] (7.5 μM) it was 118.5; in data set [3] (10 μM), 96; in data set [7] (5 μM) it was 85.5; in data set [7] (7.5 μM) it was 65.5; in data set [7] (10 μM), 46.5. In data set [1], this molecule showed an IC50 of around 15 µM.
As for `O=S(=O)(NC[C@H](O)CN1c2ccccc2CCc2ccccc21)c1ccc(OC(F)(F)F)cc1` [Example 75, (R)—N-(3-(10,11-dihydro-5H-dibenzo[b,f]azepin-5-yl)-2-hydroxypropyl)-4-(trifluoromethoxy)benzenesulfonamide], the number of colonies in data set [3] (5 μM) is 133.5; in data set [3] (7.5 μM), 105; in data set [3] (10 μM) it was 63.5; in data set [7] (5 μM), 109.5; in data set [7] (7.5 μM), 80; in data set [7] (10 μM), 47. Also, the IC50 in data set [1] is around 15 µM.
`O=S(=O)(NCCCN1c2ccccc2CCc2ccccc21)c1cccnc1` [Example 89]: the viability at 48 h, 40 µM in data set [8] (@ 40 μM) turned out to be 50%.
Turning to `O=C(CCCN1CCC(O)(c2ccc(Cl)cc2)CC1)c1ccc(F)cc1` [Haloperidol, reference compound], the “fold increase in iTreg (Foxp3+) over control (DMSO) wells” value in data set [2] (control compounds, concentration not given, 3 days, 2 ng/mL TGFβ) is “did not induce a statistically significant increase”.
